In patent US20250145948A1, “METHOD FOR ASSESSING DIFFERENTIATION POTENTIAL OF CELLS IN CULTURE BROTH IN DIFFERENTIATION OF PLURIPOTENT STEM CELLS INTO NEURAL CELLS OF MIDBRAIN FLOOR PLATE REGION” (SUMITOMO PHARMA CO., LTD., priority 2022, published 2025):

Tests used:
iPS cell line (1231A3) [1] = assay: Ratio of Corin-positive cells after induction of differentiation into neural cells of the midbrain floor plate region (cell sorter); format: cell-based, human; conditions: cell group A1: pretreatment with SAG 300 nM from Day -1 to Day 0; culture day 12 for the induction of differentiation
Description: (§1) An iPS cell line (formal name: 1231A3) as a line for research was used and cultured in a medium having composition given below. The medium was supplemented (with pretreatment) with SAG (N-Methyl-N′-(3-pyridinylbenzyl)-N′-(3-chlorobenzo[b]thiophene-2-carbonyl)-1,4-diaminocyclohexane, final concentration: 300 nM) for 1 day from 1 day before the start of differentiation culture (Day −1) to the start day of differentiation (Day 0) to establish a cell group having high induction efficiency (cell group A1). An untreated cell group (cell group A2) was also established for comparison by cell culture under the same conditions as in the cell group A1 except that the medium was not supplemented with SAG.
As for the medium in the culture experiment A, AK03N basal medium manufactured by Ajinomoto Co., Inc. was used before the start of differentiation, and GMEM containing 8% KSR was used as a basal medium at and after the start of differentiation (Day 0).
(§2) The pluripotent stem cells in each of six types of cell groups provided in the culture experiments A, B, and C were induced to differentiate into neural cells of the midbrain floor plate region in accordance with a predetermined protocol. […] The ratio of Corin-positive cells in each cell group was measured using a cell sorter (BD FACSJazz, BD Accuri or Furukawa PERFLOW Sort) on 12 days from the start of differentiation. […]

iPS cell line (1231A3) [2] = assay: Concentration analysis of NT-3 in culture supernatant (Bioplex); format: cell-based, human; conditions: cell group A1 (SAG 300 nM pretreatment)
Description: as §1, §2

With `CNC1CCC(N(Cc2cccc(-c3ccncc3)c2)C(=O)c2sc3ccccc3c2Cl)CC1` (stereo not drawn) [SAG, N-Methyl-N′-(3-pyridinylbenzyl)-N′-(3-chlorobenzo[b]thiophene-2-carbonyl)-1,4-diaminocyclohexane] the “ratio of Corin-positive cells” value (iPS cell line (1231A3) [1]) was 90%, the “NT-3 in culture supernatant” value (iPS cell line (1231A3) [2]; sample collected 3 days after the start of differentiation) was “specifically increased” and the “NT-3 in culture supernatant” value (iPS cell line (1231A3) [2]; samples collected 1 day and 5 days after the start of differentiation) was “not detected”.
